Assay results as given in publication PMC4510350 (PLoS Neglected Tropical Diseases, 2015).
pEC50: −log10 of the molar value. ≈ marks a conversion by molar mass, not a printed value. Entries after “also recorded” stand apart in the source; their conditions may differ. Where a SMILES comes first, the peptide text is derived from it. Where no end group is shown, it is not given here. [ ]: non-standard residue; d: D form.

Experiments:
[1] = system: B. thailandensis biofilm; format: cell-based, Burkholderia thailandensis
[2] = system: B. thailandensis (E264); conditions: pH 7.4
[3] = system: B. thailandensis E264 pre-formed biofilm; format: cell-based, Burkholderia thailandensis; conditions: n = 8
[4] = system: B. pseudomallei; conditions: cited from earlier work
[5] = system: multiple Burkholderia species; conditions: cited from earlier work

In the case of `CC(C)(O/N=C(\C(=O)N[C@@H]1C(=O)N2C(C(=O)[O-])=C(C[n+]3ccccc3)CS[C@H]12)c1csc(N)n1)C(=O)O` [Ceftazidime], the “biofilm inhibition” value [1] was “did not inhibit biofilm production; also recorded: did not show biofilm inhibition”.
In the case of `CC(C)C[C@@H](NC(=O)[C@@H](CCCCN)NC(=O)[C@@H](CCCCN)NC(=O)[C@@H](Cc1ccccc1)NC(=O)[C@@H](Cc1ccccc1)NC(=O)[C@@H](CCCCN)NC(=O)[C@@H](CCCCN)NC(=O)[C@@H](C)NC(=O)[C@@H](CCCNC(=N)N)NC(=O)[C@H](N)CCCCN)C(=O)N[C@H](CCCCN)C(N)=O` [D-ATRA-1A] (H-[dK][dR][dA][dK][dK][dF][dF][dK][dK][dL][dK]-NH2; N-terminus and C-terminus assumed), the “biofilm inhibition” value [1] was “did slightly, but only at the highest concentration of peptide tested (300 μg/ml); also recorded: Minimal biofilm inhibition”, the pEC50 ([2]; 3 h) was 5.32 and the “EC50 (μg/ml)” value ([2]; 3 h) was 6.86 µg/mL (≈ 4.83 µM). For the same compound, the “dispersion of pre-formed biofilm” value [3] was “no biofilm dispersion activity”.
In the case of “GLKLRFEFSKIKGEFLKTPEVRFRDIKLKDNRISVQR [Scrambled LL-37]”, the “biofilm inhibition” value [1] was “did not inhibit biofilm; also recorded: did not show biofilm inhibition”.
With HNP-3 the “antimicrobial activity / whether an EC50 could be determined” value [2] was “could not be calculated because the peptide was ineffective”.
In the case of “HNP-4 (VCSCRLVFCRRTELRVGNCLIGGVSFTYCCTRV; ends and bridges not checked; cysteine pairing not given here; UniProt P12838 64-96, looked up)”, the “antimicrobial activity / whether an EC50 could be determined” value [2] was “could not be calculated because the peptide was ineffective”.
In the case of KRAKKFFKKLK-NH2 [ATRA-1A], the pEC50 ([2]; 3 h) was 5.01.
For KRAKKFFKKPK [ATRA-2], the “biofilm inhibition” value [1] was “did not inhibit biofilm formation; also recorded: not biofilm inhibition” and the “dispersion of pre-formed biofilm” value [3] was “no biofilm dispersion activity”.
With KRFKKFFKKLK [ATRA-1] the pEC50 ([2]; 3 h) was 5.16.
In the case of RGRKSSRRKK [Peptide 4 of hBD-3], the “antimicrobial activity / whether an EC50 could be determined” value [2] was “could not be calculated because the peptide was ineffective” and the “killing of B. thailandensis at highest concentration tested” value [2] was 65%.
For bactenecin, the “antimicrobial activity against B. pseudomallei” value [4] is listed as “antimicrobial against B. pseudomallei”.
In the case of “hBD-3 (GIINTLQKYYCRVRGGRCAVLSCLPKEEQIGKCSTRGRKCCRRKK; ends and bridges not checked; cysteine pairing not given here; UniProt P81534 23-67, looked up)”, the “LD50 against multiple Burkholderia species” value [5] is given as over 100 µg/mL.
